Data set [1] deals with HT1080 cells. The data set can be described thus: Cell cycle analysis by flow cytometry (Hoechst 33342, Dean-Jett-Fox model). In kind it is cell-based, human. The procedure: (§1) HT1080 cells were seeded in 6-well plates (flat-bottom cell culture microplate, 3505, Corning, Luzern, Switzerland) at a density of 150,000 cells/well and were left to attach overnight. […] Cells were incubated for 24, 48 and 72 h in the dark at 37 °C. Cells were washed 3 times with DPBS, detached from the surface with a cell-scraper and resuspended in 500 μL of DPBS. Cells were analyzed immediately on a BD LSR Fortessa cell analyzer (BD Biosciences, San Jose, CA, USA). […] For this purpose, 1 mM Tris buffer was prepared and the pH was adapted to 7.6 with 30% HCl. Igepal CA-630 and Hoechst 3342 (5 μg/mL final concentration) were added, and the reagent was filtered. […] Samples were incubated at 4 °C for 1 h and analyzed with a BDLSR Fortessa cell analyzer. Acquisition data were analyzed using FlowJo V10 software (FLOWJO, LCC, Ashland, OR, USA). For cell cycle analysis, the Dean-Jett-Fox model was used. All measurements were done in triplicates. Mean values and S.D. were calculated and plotted for each tested compound.
On the technique in general: In flow cytometry, cells or beads pass a laser one at a time.

In data set [2] the test system is HT1080 cells. The data set can be described thus: Confocal fluorescence microscopy, co-localization (PCC) of DOX fluorescence. The following applies: 24 h incubation, 0.3 μM free DOX; mean ± SD of three images. Type of data set: cell-based, human. The procedure: HT1080 cells were seeded one day before the experiment at a density of 78,500 cells in 1.3 mL of complete medium into a glass-bottom microwell dish (35 mm petri dish, 14 mm microwell, MatTek Corporation). […] Control cells were incubated in serum-free medium under the same experimental conditions. Cells were then washed with DPBS and incubated for 20 min with 1 μg/mL Hoechst 33,342 stain and 70 nM of LysoTracker® Green DND-26. Prior to imaging, cells were washed with DPBS and serum-free medium was put into every dish. Fluorescence imaging was carried our using a Zeiss LSM780 (Zeiss, Jena, Germany) inverted confocal microscope. The microscopic images were using 405 and 488 nm lasers as excitation wavelengths, 495–525, 575–625 and 415–492 nm emission filters, and an objective lens, Plan-Aprochromat 63 x/1.4 oil DIC M27. During the image acquisition time, slides were kept at 37 °C in a humidified chamber (INUBTF-WSKM-F1, Tokai Hit, Japan). ZEN 2 software (Zeiss, Jena, Germany) was used for image processing. […] […] PCC was calculated in regions of interest (ROI), separately defined for each image by masking the entire dataset with the red channel (DOX fluorescence). The value of PCC for each experiment is presented as mean ± S.D. calculated from three separate images.

Data set [3] deals with HT1080 cells. The data set can be described thus: Flow cytometry of intracellular and nuclear DOX accumulation. In kind it is cell-based, human. The following applies: 24 h, 0.3 μM (DOX eq), isolated nuclei, triplicates. The procedure:
as §1, with “compound. Fluorescence of control cells incubated in serum-free medium was subtracted from acquired DOX-emitted fluorescence.” for “compound.”

For data set [4], the system named is HT1080 human fibrosarcoma cells. As to the kind of experiment: WST-1 cell proliferation / cytotoxicity assay. The following applies: for Survival Rate (SR) / Cytotoxicity (in words): HT1080, 72 h; for Cytotoxicity (in words): WST-1, 5-50 μM DOX eq (Figure S14), n = 3. In kind it is cell-based. Here is the method: Human fibrosarcoma cell line HT1080 (ATCC® CCL-121™, Manassas, VA, USA) was grown as monolayers in DMEM (1x) + GlutaMAX™-1 medium supplemented with 10% fetal calf serum and […] streptomycin and 100 IU/mL penicillin. Cells were cultivated at 37 °C in humidified 95% air and 5% CO2 atmosphere and routinely maintained by serial passage in a new medium. Prior to experiments, cells were tested for mycoplasma contamination with the MycoAlert™ kit.
Cells were seeded at a density of 8000 cells/well in a 96-well plate (clear-bottom black plate, 3603, Corning, Luzern, Switzerland) one day prior to the experiment. […] Cell proliferation assays were performed at 72 h upon incubation using a Cell Proliferation reagent (WST-1) following the manufacturer’s recommendations. The absorption was measured at 450 nm with a plate reader (Safire). The percentage of cell survival was calculated with respect to control samples treated with either medium or a solution of DMSO (50%) in serum-free medium, as follows: [A (test-conc.) − A (100% dead)/A (100% viable) − A (100% dead)] × 100. Mean values from three wells were determined and expressed as ± S.D. All assays were done in triplicates.
(Formazan colour is commonly taken as a measure of viable cells.)

The mark [5] stands for this setting: 24 h, 0.3 μM (DOX eq), mean ± S.D., n = 3.
[6] abbreviates: 48 hours, equimolar concentration (DOX eq).
[7] abbreviates: 72 hours, equimolar concentration (DOX eq).

pIC50: −log10 of the molar value. Starred links: 1 amine or outer side, 2 acyl side, 3 side chain; linkers in the order of their positions; H or OH if unused. Residues, ends and D or L forms follow the SMILES beside them. *: point of attachment. Doxorubicin(3'-N) = COc1cccc2c1C(=O)c1c(O)c3c(c(O)c1C2=O)C[C@@](O)(C(=O)CO)C[C@@H]3O[C@H]1C[C@H](N*)[C@H](O)[C@H](C)O1; DBCO = C1#Cc2ccccc2N(*)Cc2ccccc21; Suc = O=C(CCC(=O)[*:2])[*:1]

We go through 3 molecules from article PMC7570921, “Cathepsin B-Cleavable Cyclopeptidic Chemotherapeutic Prodrugs” (Molecules, 2020).

Regarding `COc1cccc2c1C(=O)c1c(O)c3c(c(O)c1C2=O)C[C@@](O)(C(=O)CO)C[C@@H]3O[C@H]1C[C@H](N)[C@H](O)[C@H](C)O1.Cl` [DOX, Doxorubicin hydrochloride salt], the “% G1” value in the data set with HT1080 cells [1] (setting [5]) is given as 30.4 ± 2.3%; in the data set with HT1080 cells [1] (setting [6]), 29.2 ± 1.5%; in the data set with HT1080 cells [1] (setting [7]) it was 32.6 ± 3.2%. The “% S” value in the data set on HT1080 cells [1] (setting [5]) was 36.7 ± 11.9%; with HT1080 cells [1] (setting [6]), 32.3 ± 4.4%; in the data set with HT1080 cells [1] (setting [7]), 35.8 ± 6.7%. Also, the “% G2” value is 33.6 ± 5.7% in the data set on HT1080 cells [1] (setting [6]) and 27.3 ± 8.1% in the data set with HT1080 cells [1] (setting [7]). Further, the “PCC between DOX and Hoechst 33342” value in the data set with HT1080 cells [2] was determined as 0.41 ± 0.10. In addition, the “DOX accumulation in the nucleus” value in the data set with HT1080 cells [3] is reported as “significant DOX accumulation in the nucleus”. The “Survival Rate (SR)” value in data set [4] (WST-1, [Dox] 0.01 mM as printed, SD 9.7 wrapped) is reported as 86.4%; in data set [4] (WST-1, [Dox] 0.05 mM as printed, SD 10.6 wrapped) it was 81.7%; in data set [4] (WST-1, [Dox] 0.10 mM as printed, SD 9.7 wrapped) it was 69.9%; in data set [4] (WST-1, [Dox] 0.15 mM as printed, SD 7.3 wrapped), 53.7%; in data set [4] (WST-1, [Dox] 0.2 mM as printed, SD 4.7 wrapped), 34.6%; in data set [4] (WST-1, [Dox] 0.4 mM as printed, SD 1.3 wrapped), 6.9%. Also, the “Survival Rate (SR)” value in data set [4] (WST-1, [Dox] 0.5 mM as printed, SD 0.4 wrapped) was 1.3%; in data set [4] (WST-1, [Dox] 0.6 mM as printed, SD 0.5 wrapped), 0.4%; in data set [4] (WST-1, [Dox] 0.8 mM as printed, SD 0.7 wrapped), 0%; in data set [4] (WST-1, [Dox] 1.0 mM as printed, SD 0.5 wrapped), 0.4%. The pIC50 (commonly the negative decadic logarithm of the IC50, by convention in mol/L) in data set [4] (HT1080, 72 h incubation, WST-1, free DOX (data not shown)) was 6.80.

In the case of `COc1cccc2c1C(=O)c1c(O)c3c(c(O)c1C2=O)C[C@@](O)(C(=O)CO)C[C@@H]3O[C@H]1C[C@H](NC(=O)CNC(=O)[C@H](C)NC(=O)[C@H](C)NC(=O)[C@H](CCCNC(=N)N)NC(=O)[C@H](CCCNC(=N)N)NC(=O)CNC(=O)[C@H](C)NC(=O)CNC(=O)CCC(=O)N2Cc3ccccc3C#Cc3ccccc32)[C@H](O)[C@H](C)O1` ({DBCO-Suc}-GAGRRAAG-{Doxorubicin(3'-N)}), the “Cytotoxicity (in words)” value in data set [4] is reported as “significant cytotoxicity”.

For PEG10-GAGRRAAG-DOX, the “Cytotoxicity (in words)” value in data set [4] is “no cytotoxicity”.
